Structures are written as SMILES.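 Tested at 5 concentrations; 48 h exposure; 96-well plates; endpoints linearly interpolated, else capped at highest concentration. The concentration for 50% growth inhibition is given as GI50.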 The source made the active and inactive calls. No stated cut-off is given here; in the data, active = GI50 up to about 1.1 µM and inactive = higher. Some results are limits rather than exact numbers.

Among the test systems are PC-3; HOP-92; MDA-MB-231; RPMI-8226; HL-60; BT-549; K562; SW-620; SK-MEL-2; SF-539; LOX IMVI; NCI/ADR-RES; CAKI-1; SN12C; SF-268; SNB-19; SK-MEL-5; Hs-578T; Malme-3M; ACHN.
Test in all cases: growth of human tumour cells (NCI), 48 h

For `N#C/C(=C\Nc1ccccn1)C(=O)C1CC1`, the GI50 in the assay on PC-3, with HOP-92, in the assay with MDA-MB-231, in the assay on RPMI-8226, in the assay on HL-60 and in the assay with BT-549 was > 100 µM (inactive) in each case. In addition, the GI50 in the assay on K562, in the assay with SW-620, with SK-MEL-2, in the assay with SF-539, with LOX IMVI and with NCI/ADR-RES was > 100 µM (inactive) throughout. Further, the GI50 in the assay with CAKI-1, with SN12C, in the assay with SF-268, with SNB-19, in the assay with SK-MEL-5 and in the assay on Hs-578T was > 100 µM (inactive) throughout. In addition, the GI50 with Malme-3M and with ACHN was > 100 µM (inactive) each time.

In the case of `CC1(C)C(=O)C2(C#N)CCC1C2` (stereo not given), the GI50 is > 100 µM (inactive) in the assay on PC-3; > 100 µM (inactive) with HOP-92; > 100 µM (inactive) with MDA-MB-231; > 76.9 µM (inactive) in the assay on RPMI-8226; > 100 µM (inactive) with HL-60; > 100 µM (inactive) in the assay with BT-549. Besides, the GI50 in the assay on K562, in the assay with SW-620, with SK-MEL-2, in the assay on SF-539, in the assay on LOX IMVI and in the assay on NCI/ADR-RES was > 100 µM (inactive) in each case. In addition, the GI50 in the assay with CAKI-1, in the assay on SN12C, in the assay on SF-268, with SNB-19, in the assay on SK-MEL-5 and in the assay with Hs-578T was > 100 µM (inactive) each time. Further, the GI50 in the assay on Malme-3M and in the assay on ACHN was > 100 µM (inactive) in each case.

For `COc1ccc([N+](=O)[O-])c2c(NCCCN(C)C)c(C)c(C)nc12`, the GI50 was 83 µM (inactive) in the assay on PC-3; 23.9 µM (inactive) in the assay with HOP-92; 57.5 µM (inactive) with MDA-MB-231; 31.8 µM (inactive) with RPMI-8226; 42.9 µM (inactive) in the assay on HL-60; 56.6 µM (inactive) with BT-549. The GI50 with K562 is 37.6 µM (inactive); in the assay with SW-620 it was 54 µM (inactive); with SK-MEL-2, > 100 µM (inactive); in the assay with SF-539, > 100 µM (inactive); in the assay on LOX IMVI, > 100 µM (inactive); with NCI/ADR-RES it was > 100 µM (inactive). Also, the GI50 was > 100 µM (inactive) with CAKI-1; > 100 µM (inactive) with SN12C; > 100 µM (inactive) in the assay with SF-268; 44.8 µM (inactive) with SNB-19; 46.8 µM (inactive) with SK-MEL-5; > 100 µM (inactive) with Hs-578T. Also, the GI50 with Malme-3M was 45.1 µM (inactive); in the assay with ACHN, > 100 µM (inactive).

For the molecule `N#CC1(C#N)C2(c3ccccc3)OC(c3ccccc3)(c3cc4ccccc4cc32)C1(C#N)C#N`, the GI50 is 17.1 µM (inactive) in the assay with PC-3; 1.52 µM (inactive) in the assay with HOP-92; 15.7 µM (inactive) with MDA-MB-231; 1.28 µM (inactive) in the assay on RPMI-8226; 2.37 µM (inactive) in the assay on HL-60; > 10 µM (inactive) in the assay on BT-549. In addition, the GI50 was 2.86 µM (inactive) in the assay on K562; 2.62 µM (inactive) with SW-620; 19.4 µM (inactive) in the assay on SK-MEL-2; 16.1 µM (inactive) in the assay on SF-539; 4.91 µM (inactive) in the assay on LOX IMVI; 21 µM (inactive) in the assay on NCI/ADR-RES. Besides, the GI50 in the assay with CAKI-1 is 7.91 µM (inactive); with SN12C, 16.6 µM (inactive); with SF-268, 17 µM (inactive); with SNB-19, 15.5 µM (inactive); with SK-MEL-5, 14.3 µM (inactive); in the assay with Hs-578T it was 25.8 µM (inactive). For the same molecule, the GI50 in the assay with Malme-3M was 18.1 µM (inactive); in the assay with ACHN, 11.8 µM (inactive).

On to `N#CC(C#N)=Cc1c(O)ccc2ccccc12`, for which the GI50 with PC-3 is 17.5 µM (inactive); in the assay on HOP-92, 0.422 µM (active); with MDA-MB-231 it was 13.2 µM (inactive); in the assay on RPMI-8226, 11.9 µM (inactive); with HL-60, 2.99 µM (inactive); in the assay with BT-549, 16.7 µM (inactive). For the same molecule, the GI50 was 4.05 µM (inactive) in the assay on K562; 11.9 µM (inactive) in the assay with SW-620; 13.7 µM (inactive) with SK-MEL-2; 10.6 µM (inactive) in the assay with SF-539; 12.1 µM (inactive) in the assay on LOX IMVI; 17.3 µM (inactive) in the assay on NCI/ADR-RES. For the same molecule, the GI50 in the assay on CAKI-1 was 14.1 µM (inactive); in the assay with SN12C, 13.6 µM (inactive); with SF-268 it was 11.9 µM (inactive); in the assay on SNB-19, 15.4 µM (inactive); in the assay with SK-MEL-5, 13.3 µM (inactive); in the assay with Hs-578T, 17.3 µM (inactive). Moreover, the GI50 with Malme-3M was 17 µM (inactive); in the assay on ACHN, 10.4 µM (inactive).

`COc1ccc2c(C(=O)c3c(C)n(CCN4CCOCC4)c4ccccc34)cccc2c1`: the GI50 is 12.7 µM (inactive) with PC-3; 19.8 µM (inactive) in the assay on HOP-92; 22.6 µM (inactive) in the assay on MDA-MB-231; 24.7 µM (inactive) in the assay with RPMI-8226; 4.93 µM (inactive) in the assay on HL-60; 20.2 µM (inactive) in the assay on BT-549. Moreover, the GI50 with K562 was 18.7 µM (inactive); in the assay with SW-620, 1.27 µM (inactive); with SK-MEL-2, 21.3 µM (inactive); with SF-539, 84.3 µM (inactive); with LOX IMVI, 18.9 µM (inactive); with NCI/ADR-RES, 16.9 µM (inactive). For the same molecule, the GI50 in the assay on CAKI-1 is 59 µM (inactive); with SN12C it was 71 µM (inactive); in the assay with SF-268, 16.1 µM (inactive); in the assay on SNB-19, 46.1 µM (inactive); in the assay with SK-MEL-5, 17.5 µM (inactive); in the assay on Hs-578T, 10.8 µM (inactive). The GI50 in the assay on Malme-3M was 17.5 µM (inactive); with ACHN, 37.5 µM (inactive).
